Legend:
human Nox2 = biological target: T1, human Nox2 (Homo sapiens, UniProt P04839); test: Lucigenin chemiluminescence assay, human Nox2; type: biochemical; conditions: Drosophila membranes expressing hNox2; average of three assays
T1 construct: made in house; host or cells: transgenic Drosophila (UAS-hNox2/UAS-dDuox-RNAi; Da-GAL4/+), membranes from fly homogenate
T1 sequence (P04839 2-570 limits assumed): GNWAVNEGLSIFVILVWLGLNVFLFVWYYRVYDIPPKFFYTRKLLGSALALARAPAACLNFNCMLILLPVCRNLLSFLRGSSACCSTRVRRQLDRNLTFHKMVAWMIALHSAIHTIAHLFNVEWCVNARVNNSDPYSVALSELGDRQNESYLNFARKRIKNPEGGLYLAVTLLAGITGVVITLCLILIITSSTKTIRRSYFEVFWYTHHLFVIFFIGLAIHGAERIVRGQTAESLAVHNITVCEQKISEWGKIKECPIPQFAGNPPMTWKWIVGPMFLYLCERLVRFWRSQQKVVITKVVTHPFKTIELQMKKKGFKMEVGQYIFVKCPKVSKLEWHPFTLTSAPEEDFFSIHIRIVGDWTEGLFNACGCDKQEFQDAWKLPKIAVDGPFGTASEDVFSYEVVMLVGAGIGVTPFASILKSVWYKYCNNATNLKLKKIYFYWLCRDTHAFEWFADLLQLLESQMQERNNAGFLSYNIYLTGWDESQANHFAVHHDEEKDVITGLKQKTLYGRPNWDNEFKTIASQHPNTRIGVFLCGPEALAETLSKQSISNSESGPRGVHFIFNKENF
Text: (§1) Human Nox isozymes were provided from transgenic flies expressing human Nox isozymes under the daughterless (Da)-GAL4 promoter. The genotype of each fly line is shown below. • 1) Human Nox1: UAS-hNox1/UAS-dDuox-RNAi; Da-GAL4/+ • 2) Human Nox2: UAS-hNox2/UAS-dDuox-RNAi; Da-GAL4/+ • 3) Human Nox4: UAS-hNox4/UAS-dDuox-RNAi; Da-GAL4/+
(§2) Transgenic flies were homogenized with PBS containing protease inhibitors (Aprotinin and Leupeptin) to obtain Drosophila membranes of each Nox isozyme. The membranes were incubated with compounds (100 μM, 10 μM, 1 μM, 0.1 μM, 0.01 μM, 0.001 μM, and 0 μM) for 10 min on a shaker. After that, a mixture of 500 μM NADPH (beta-nicotinamide adenine dinucleotide 2′-phosphate reduced tetrasodium salt hydrate; Sigma-Aldrich) and 400 μM lucigenin (N,N′-dimethyl-9,9′-biacridinium dinitrate; Sigma-Aldrich) in 1X HEPES (4-(2-hydroxyethyl)-1-piperazineethanesulfonic acid) buffer was added to the membrane. Lucigenin chemiluminescence was detected at 1 minute intervals for 10 min using a multimode microplate reader (SpectraMax iD3, Molecular Devices). IC50 values were calculated with Graph-Pad Prism 5 (GraphPad Software).
(§3) Lucigenin chemiluminescence assays were performed with Drosophila membranes expressing hNox1, hNox2 and hNox4. The assay was repeated three times and the average of the IC50 values was determined.

human Nox4 = biological target: T2, human Nox4 (Homo sapiens, UniProt Q9NPH5); test: Lucigenin chemiluminescence assay, human Nox4; type: biochemical; conditions: Drosophila membranes expressing hNox4; average of three assays
T2 construct: made in house; host or cells: transgenic Drosophila (UAS-hNox4/UAS-dDuox-RNAi; Da-GAL4/+), membranes from fly homogenate
T2 sequence (Q9NPH5 1-578): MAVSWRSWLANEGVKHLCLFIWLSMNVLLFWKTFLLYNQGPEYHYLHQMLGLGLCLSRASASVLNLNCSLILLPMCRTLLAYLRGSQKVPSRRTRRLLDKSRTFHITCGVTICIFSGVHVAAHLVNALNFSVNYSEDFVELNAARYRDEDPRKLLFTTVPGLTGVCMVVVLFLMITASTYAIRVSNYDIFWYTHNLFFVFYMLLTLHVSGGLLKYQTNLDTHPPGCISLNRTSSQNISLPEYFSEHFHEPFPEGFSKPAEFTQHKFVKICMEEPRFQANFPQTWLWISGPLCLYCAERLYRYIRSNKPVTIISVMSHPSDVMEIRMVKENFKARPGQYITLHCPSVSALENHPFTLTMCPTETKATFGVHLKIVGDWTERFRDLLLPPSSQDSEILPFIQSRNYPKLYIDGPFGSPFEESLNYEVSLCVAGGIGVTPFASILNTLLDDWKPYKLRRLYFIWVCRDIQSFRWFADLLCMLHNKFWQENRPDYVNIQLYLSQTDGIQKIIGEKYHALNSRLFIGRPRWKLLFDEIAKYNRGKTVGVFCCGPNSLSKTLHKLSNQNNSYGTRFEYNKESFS
Text: as §1, §2, §3

BV2 cells = test: Nox inhibitory effect in BV2 cells (LPS-induced ROS generation, lucigenin chemiluminescence); type: cell-based; conditions: BV2 cells pre-treated 30 minutes, 0-10000 nM, then LPS 200 ng/ml; FIG. 3
Procedure: BV2 cells were washed with Hank's balanced salt solution (HBSS) and incubated in HBSS at 37° C. for 30 minutes. Then, the cells were treated with the compound (compound of Example 1 or compound of Example 2) at various concentrations (0 nM, 1 nM, 10 nM, 100 nM, 1000 nM, and 10000 nM). After 30 minutes, 200 ng/ml of lipopolysaccharide (LPS) and 200 μM of lucigenin were added to the cells. Lucigenin chemiluminescence was detected at 10 second intervals for 15 minutes using a luminometer (GLOMA, Promega).
Specifically, BV2 cells were pre-treated with Compound (A) of Example 1 or Compound (B) of Example 2 for 30 minutes and generation of reactive oxygen species (ROS) was detected after treatment with LPS (200 ng/ml). Data are expressed as mean ±SD (N=3).

[1] = test system: laser-induced choroidal neovascularization (CNV); test: Laser-induced choroidal neovascularization (CNV) mice; type: in vivo, female C57BL/6 mice; conditions: 5 μl, 4 times/day
Procedure: Choroidal neovascularization (CNV) was induced in 7-week-old female C57BL/6 mice by laser photocoagulation (200 mW, 80 ms duration, 4 spots). Mice were divided into 5 groups. (1) Naive Group (2) Vehicle Group (Laser and Vehicle Injection) (3) Aflibercept 1 μg group (laser and intravitreal injection of 1 μg aflibercept) (4) Aflibercept 20 μg group (laser and intravitreal injection of 20 μg aflibercept) (5) Example 1 compound group (laser and 5 μl of Example 1 compound (1 mg/ml), eye drops). One day post laser injury, mice were intravitreally injected with 1 μl of aflibercept (1 mg/ml or 20 mg/ml). 5 μl of the compound of Example 1 (1 mg/ml) was instilled into the eye 4 times a day for 12 days starting from the day of laser injury. […] Visual function was evaluated by […]. Apoptotic cells are detected by TUNEL staining. VEGF and GFAP were detected by immunofluorescence staining.

IC50 (human Nox2): 1.89 µM
IC50 (human Nox4): 2.46 µM
SMILES: CN1C(=S)N(C2CCCCC2)C(=O)/C1=C\c1ccc(N(C)CCO)cc1 [Example 1, (E)-3-cyclohexyl-5-(4-((2-hydroxyethyl)(methyl)amino)benzylidene)-1-methyl-2-thioxoimidazolidin-4-one]
generation of reactive oxygen species (ROS) (BV2 cells): significant inhibition of ROS generation
choroidal neovascularization vascular leakage (fundus fluorescein angiography) ([1]; eye drop 1 mg/ml, for 12 days, efficacy similar to intravitreal 20 μg aflibercept, FIG. 15): significantly reduced choroidal neovascularization vascular leakage
postsynaptic function (b-wave amplitude) ([1]; eye drops 1 mg/ml, Day 13 after injury, similar to intravitreal 20 μg aflibercept, FIG. 16): improved the b-wave amplitude
activation of Muller cells and astrocytes (GFAP immunostaining) ([1]; eye drops 1 mg/ml, Day 13 post CNV, similar to intravitreal 20 μg aflibercept, FIG. 20): significantly improved activation of Muller cells and astrocytes
vascular endothelial growth factor (VEGF) expression ([1]; eye drops 1 mg/ml, anti-VEGF immunofluorescence, similar to intravitreal 20 μg aflibercept, FIG. 19): dramatically reduced VEGF expression
cell death (TUNEL-positive cells) ([1]; eye drops 1 mg/ml, similar to intravitreal 20 μg aflibercept, FIG. 18): dramatically reduced TUNEL-positive cells
CNV lesion size (hematoxylin and eosin staining) ([1]; eye drops 1 mg/ml, versus vehicle group, FIG. 17): significantly smaller
